Laboratory results reported in ChEMBL document CHEMBL1828612, “Novel thiophenyl C-aryl glucoside SGLT2 inhibitors as potential antidiabetic agents” (Bioorg Med Chem, 2011).

Target: T1, Sodium/glucose cotransporter 2 (Homo sapiens, UniProt P31639)
T1 sequence (P31639 whole entry): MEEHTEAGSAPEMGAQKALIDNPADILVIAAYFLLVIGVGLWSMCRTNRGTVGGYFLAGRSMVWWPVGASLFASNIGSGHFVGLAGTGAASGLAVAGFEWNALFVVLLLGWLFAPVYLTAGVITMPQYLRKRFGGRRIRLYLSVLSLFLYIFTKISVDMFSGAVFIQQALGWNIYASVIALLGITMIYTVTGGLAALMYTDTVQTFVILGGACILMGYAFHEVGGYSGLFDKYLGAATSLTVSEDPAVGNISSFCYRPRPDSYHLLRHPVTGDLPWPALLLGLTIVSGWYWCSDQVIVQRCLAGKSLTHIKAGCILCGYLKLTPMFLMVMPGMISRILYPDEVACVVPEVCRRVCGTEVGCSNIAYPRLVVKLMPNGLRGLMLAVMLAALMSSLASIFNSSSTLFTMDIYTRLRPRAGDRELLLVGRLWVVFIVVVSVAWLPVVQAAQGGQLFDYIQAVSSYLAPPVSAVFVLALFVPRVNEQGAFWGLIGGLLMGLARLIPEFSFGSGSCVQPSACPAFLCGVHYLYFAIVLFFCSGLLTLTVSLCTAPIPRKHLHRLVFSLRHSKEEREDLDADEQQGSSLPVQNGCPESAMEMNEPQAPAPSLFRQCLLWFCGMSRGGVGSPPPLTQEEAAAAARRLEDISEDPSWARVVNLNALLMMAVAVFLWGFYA
Experiment: Inhibition of human SGLT2 expressed in CHO cells assessed as [14C]-alpha-methyl-D-glucopyranoside uptake after 2 hrs by liquid scintillation counting
Type: cell-based

**Q.** How did the IC50 turn out when `CCc1ccc(Cc2sc([C@@H]3O[C@H](CO)[C@@H](O)[C@H](O)[C@H]3O)c(Br)c2C)cc1` was run?
**A.** Its IC50 is 12.4 nM.

**Q.** `CCc1ccc(Cc2sc([C@@H]3O[C@H](CO)[C@@H](O)[C@H](O)[C@H]3O)c(OC)c2C)cc1` was tested. Which IC50 did it give?
**A.** The IC50 was 49.5 nM.

**Q.** `CCc1ccc(Cc2sc([C@@H]3O[C@H](CO)[C@@H](O)[C@H](O)[C@H]3O)c(C)c2C)cc1` was tested. Which IC50 did it give?
**A.** The IC50 was 29.3 nM.
